Source: patent US4077949A, “Polypeptide hormones of the thymus” (Sloan-Kettering Institute for Cancer Research, priority 1975, dated 1978)
Ends that are not written are not given here.

What was measured:
[1] = system: neuromuscular transmission; experiment: Electromyographic assay of neuromuscular transmission in mice after injection; format: in vivo; details: for activity of QAE-Sephadex fractions in producing neuromuscular block: fractions of Example 1, FIG. 3; for dose above which a statistically significant (P < .001) electromyographic decrement was produced / mean decrement: height of the tenth muscle action potential as % of the first: mice; for dose above which a statistically significant (P < .001) electromyographic decrement was produced: five days after dose, supramaximal nerve stimulation at 50 impulses per second; for mean decrement: height of the tenth muscle action potential as % of the first: five days after doses above threshold, 50 impulses per second, controls 94 ± 2%; for active dose range per body weight: test not specified
Method: To determine the neuromuscular action of Thymin I and Thymin II, the electromyographic response of mice five days after various doses of Thymin I or Thymin II is summarized in FIG. 4. Bovine serum albumin (0.5 mg/ml, 0.9% saline) was used as a protein stabilizer and controls were injected with the solvent alone.
In 15 control mice sampled at 75 sites the height of the tenth muscle action potential was 94 ± 2% (mean ± s.e.m.) of the height of the first. The mean values and s.e.m. (vertical bars) are shown for groups of 4-10 mice given various doses of Thymin I(o) and Thymin II (.quadrature.). Statistical significances of differences from the controls were calculated by Student's t-test and are shown by solid symbols (P < 0.001), half solid symbols (0.05 > P < 0.001) and open symbols (P > 0.05).
Mice were given 100 ng of Thymin I or solvent and five mice from each group were tested at various times. With supramaximal nerve stimulation at 50 impulses per second the height of the tenth muscle action potential was expressed as a percentage of the first. This change was calculated for five points in each of five to ten mice from each group. For each time point the change in Thymin-treated mice was expressed as a percentage of the change in solvent-treated control mice and the statistical significance of the difference was assessed by Student's t-test. A statistically significant (P < .001) abnormality in the electromyogram was first evident at 18 hours, was maximal at 24 hours and persisted through 5 days.
To make the determinations described in FIGS. 4 and 5, extracts were injected into test animals and neuromuscular transmission was studied after an interval of one to five days. Initially 100 g guinea pigs were injected intraperitoneally; neuromuscular transmission was studied in vitro with a preparation of the phrenic nerve and hemidiaphragm. Subsequently, 200 g rats were used; fractions were injected subcutaneously and neuromuscular transmission was assessed electromyographically. […] Female Swiss-Webster mice weighing 25-35 g were injected intraperitoneally, groups of five to ten mice being used to test each fraction. The animals were anesthetized with urethane and electromyography was performed as described. The muscle action potentials were recorded in each mouse following supramaximal nerve stimulation with ten impulses at a rate of 50 per second. Five sites were sampled in each mouse and for each group of mice the mean standard deviation and s.e.m. were calculated for the change in the height of the muscle action, potential being expressed as a percentage of the height of the first impulse.
The statistical significance of differences found were assessed by student's t-test.

[2] = system: TL antigen on mouse bone marrow cells; experiment: Cytotoxic inhibition test: induction of TL antigen on bone marrow cells; format: cell-based; details: for absorption of anti TL antibody by incubated bone marrow cells: unfractionated cells, 100 ng/ml, 18 hours
Source text: (§1) Mice of the A/J, C57B1/6J, AKR/J and C58/J strains were purchased from the Jackson Laboratories (Bar Harbon, Me). A.TL-mice were bred at New York University from foundation stock. All mice were housed eight to a cage, and maintained on commercial high protein mouse pellets and acidified water.
(§2) Antibodies to TL antigen were produced by injecting live tumor cells (ASL-1) into A.TL- x C57B1/6J F.1 mice. After five semimonthly injections the animals were bled and the resultant serum pooled, absorbed with A.TL- thymus to remove autoantibodies, and stored in small aliquots at -70° C. […] Anti Thy 1-2 (0-C3H) was produced by injecting AKR/J mice with C58/J thymocytes and absorbing the resultant antiserum with AKR/J thymocytes.
Thymin I and Thymin II were isolated from bovine thymus as described. Each was dissolved in phosphate buffered saline (containing 1 mg/ml of bovine serum albumen to minimize adsorbtive losses), distributed into 2 μg lots and lyophilized. Each polypeptide was reconstituted in tissue culture medium at the desired concentrations just prior to use.
(§3) Bone marrow cells were obtained from the femoral marrow. Both spleen and marrow cells were teased into single cell suspensions and washed three times in RPMI 1640 medium supplemented with 10 mM Hepes and 100 U/ml of penicillin and 100 μg/ml of streptomycin. The cells were then suspended in the same medium with 10% bovine serum at a concentration of 5.0×10^6 cells/ml. One milliliter of this suspension was incubated with an appropriate dilution of thymin in 16 mm plastic petrie dishes in a humidified atmosphere containing 5% CO2 in air. At the end of the incubation the cells were washed twice and held at 4° C. at a concentration of 5.0×10^6 cells/ml in culture medium until tested for the presence of TL or Thy-1(0).
ASL-1, a TL positive, Thy 1-2 (0-C3H) positive lymphoma of A strain mice was used as the target cell in all titrations of the antisera used in these experiments, and in the cytotoxic inhibition test to be described below. The lymphoma was maintained by weekly intraperitoneal passage in A/J mice. Lymophoma cells were labelled with Cr^51 and used as target cells in the cytotoxic inhibited test.
Antisera to either TL or Thy-1 (0) were titered to determine the quantity of antibody which was required to kill 50% of the target cells in a standard suspension. The appropriate amount of antiserum was added to each well of a microtiter plate with various dilutions of the cells being tested for their antigen content. The total volume was 0.15 ml. Cells expressing the antigen against which the antiserum was directed absorbed varying amounts of the antibody, and rendered less available to react with the Cr^51 labelled target cells which were added subsequently. The concentration of antibody used was extremely critical to the sensitivity of the test. The antisera to TL or Thy-1 (0) and the cells being tested for their antigen content were incubated together at 4° C. for 90 minutes. After this incubation 50,000 target cells in a volume of […] were added and the incubation continued in the cold for an additional 30 minutes to permit the sensitization of the target cells by the remaining unabsorbed antibody. The plates were then centrifuged at 1,500 rpm for 10 minutes and the supernatant fluid removed. The pelleted cells were resuspended in 0.1 ml or RPMI 1640, containing 4% fresh rabbit serum as a source of complement, and incubated for 45 minutes at 37° C. The cells were then repelleted by centrifugation and a 0.075 ml aliquot of the supernatant fluid was counted in an automatic gamma spectrometer to determine the amount of Cr^51 released from the target cells. All assays were performed in duplicate and the results were expressed by calculating the number of cells required to reduce the relative cytotoxic index (RCI) to 0.5. The RCI was calculated as follows: [formula]

[3] = system: Thy-1(θ) antigen on mouse bone marrow cells; experiment: Cytotoxic inhibition test: induction of Thy-1(θ) antigen on bone marrow cells; format: cell-based; details: unfractionated cells, 100 ng/ml, 18 hours
Source text: as §1, §2
Thymin I and Thymin II were isolated from bovine thymus as described. Each was dissolved in phosphate buffered saline (containing 1 mg/ml of bovine serum albumen to minimize adsorbtive losses), distributed into 2 μg lots and lyophilized. […]
Antisera to either TL or Thy-1 (0) were titered to determine the quantity of antibody which was required to kill 50% of the target cells in a standard suspension. […] The cells were then repelleted by centrifugation and a 0.075 ml aliquot of the supernatant fluid was counted in an automatic gamma spectrometer to determine the amount of Cr^51 released from the target cells. […] The RCI was calculated as follows: [formula]

[4] = system: bone marrow cells (least dense BSA gradient fraction); experiment: Direct cytotoxic test (trypan blue), anti TL antiserum plus complement, bone marrow cells; format: cell-based
Method: as §3
(§4) Bone marrow and spleen cells were obtained by flotation in BSA gradients similar to those used by Komuro and Boyse (Lancet, 10, 39, 1964). These cells were tested for their susceptibility to anti TL and Thy-1-(0) antibodies in a direct cytotoxicity test, using the uptake of trypan blue as a measure of cell death.

[5] = system: spleen cells (least dense BSA gradient fraction); experiment: Direct cytotoxic test (trypan blue), anti TL antiserum plus complement, spleen cells; format: cell-based, mouse; details: 20 ng/ml for two hours
Method: as §3, §4

[6] = Thymin I compared with Thymin II
[7] = single injection of 100 ng per mouse

Row | Substance | activity of QAE-Sephadex fractions in producing neuromuscular block [1] | dose above which a statistically significant (P < .001) electromyographic decrement was produced [1] | mean decrement: height of the tenth muscle action potential as % of the first [1] | active dose range per body weight [1] | absorption of anti TL antibody by incubated bone marrow cells [2] | absorption of anti Thy-1(θ) antibody by incubated bone marrow cells [3] | relative activity on neuromuscular transmission [1, 6] | time at which abnormality in the electromyogram was maximal [1, 7] | time through which abnormality in the electromyogram persisted [1, 7] | time at which abnormality in the electromyogram was first evident ([1]; single injection of 100 ng per mouse, P < .001) | active concentration as a fraction of that of the Bach et al. preparation [2] | relative potency in inducing TL and Thy-1(θ) antigens [2, 6] | concentration giving maximal induction of TL and Thy-1(θ) antigens ([2]; bone marrow cells) | lowest concentration producing a measurable (detectable) response ([2]; bone marrow cells) | death of bone marrow cells caused by anti TL antiserum plus complement ([4]; 20 ng/ml for two hours, least dense fraction) | highest cell death values obtained in other experiments ([4]; anti TL antiserum plus complement, tissue not specified) | death of spleen cells caused by anti TL antiserum plus complement [5]
1 | H2 n-ser-gln-phe-leu-glu-asp-pro-ser-val-leu-thr-lys-glu-lys-leu-lys-ser-glu- leu-val-ala-asn-asn-val-thr-leu-pro-ala-gly-glu-gln-arg-lys-asp-val-tyr-val-gln-leu-tyr-leu-gln-thr-leu-thr-ala-val-lys-arg-cooh [Thymin II] | active in producing neuromuscular block | above 32 ng/mouse | 82% | above 0.1 mg/kg of body weight | absorbed antibodies | absorbed antibodies | – | – | – | – | – | – | – | – | – | – | –
2 | GQFLEDPSVLTKEKLKSELVANNVTLPAGEQRKDVYVQLYLQHLTAVKR [Thymin I, H2 -gly-gln-phe-leu-glu-asp-pro-ser-val-leu-thr-lys-glu-lys-leu-lys-ser-glu-leu-val-ala-asn-asn-val-thr-leu-pro-ala-gly-glu-gln-arg-lys-asp-val-tyr-val- gln-leu-tyr-leu-gln-his-leu-thr-ala-val-lys-arg-cooh] | active in producing neuromuscular block | above 4 ng/mouse | 84% | above 0.1 mg/kg of body weight | absorbed antibodies | absorbed antibodies | slightly more active | 24 h | ≥ 5 days | 18 h | approximately one thousandth | slightly more potent | 2 ng/mL | 20 pg/mL | 21% | ≤ 28% | 18%
